Assay results reported in PubChem BioAssay (NCI).
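How tested: cells in 96-well plates exposed to compound for 48 hours at five concentrations. At the GI50, growth is halved. The concentration for full growth arrest is given as TGI.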

What was measured:
Assay in all cases: DTP human tumour cell line panel, 48 h
MCF7 breast = system: MCF7 breast
RXF 393 renal = system: RXF 393 renal
MDA-MB-231 breast = system: MDA-MB-231 breast
MOLT-4 leukemia = system: MOLT-4 leukemia
NCI-H522 lung = system: NCI-H522 lung
SK-OV-3 ovarian = system: SK-OV-3 ovarian
UO-31 renal = system: UO-31 renal
MALME-3M melanoma = system: MALME-3M melanoma
CAKI-1 renal = system: CAKI-1 renal
HS 578T breast = system: HS 578T breast
OVCAR-8 ovarian = system: OVCAR-8 ovarian
OVCAR-5 ovarian = system: OVCAR-5 ovarian
SNB-19 CNS = system: SNB-19 CNS

SMILES | TGI (MCF7 breast) [µM] | TGI (RXF 393 renal) [µM] | TGI (MDA-MB-231 breast) [µM] | TGI (MOLT-4 leukemia) [µM] | TGI (NCI-H522 lung) [µM] | TGI (SK-OV-3 ovarian) [µM] | TGI (UO-31 renal) [µM] | TGI (MALME-3M melanoma) [µM] | TGI (CAKI-1 renal) [µM] | TGI (HS 578T breast) [µM] | TGI (OVCAR-8 ovarian) [µM] | TGI (OVCAR-5 ovarian) [µM] | TGI (SNB-19 CNS) [µM] | GI50 (MOLT-4 leukemia) [µM]
COC(=O)/C(C#N)=C(/NCc1ccccc1)Nc1ccccc1 | > 100 | > 100 | > 100 | > 100 | > 100 | > 100 | > 100 | > 100 | > 100 | > 100 | > 100 | > 100 | > 100 | –
N#CCCN(CCCN(C(=O)Nc1ccc(NC(=O)N(CCCN(CCC#N)C(N)=O)c2ccccc2)cc1)c1ccccc1)C(N)=O | > 100 | > 100 | > 100 | > 100 | > 100 | > 100 | > 100 | > 100 | > 100 | > 100 | > 100 | > 100 | > 100 | –
CC(C(=O)O)C1Nc2ccccc2NC1=O (stereo not drawn) | > 100 | > 100 | > 100 | > 100 | – | > 100 | > 100 | > 100 | > 100 | > 100 | > 100 | > 100 | > 100 | –
CCOC(=O)CNC(=O)CNC(=O)CNC(=O)CNNc1c(OCc2ccccc2)c(=O)c1=O | > 100 | > 100 | > 100 | > 100 | > 100 | > 100 | > 100 | > 100 | > 100 | > 100 | > 100 | > 100 | > 100 | –
Oc1ccccc1-c1n[nH]c(-c2ccccc2O)n1 | > 100 | > 100 | > 100 | > 100 | – | > 100 | > 100 | > 100 | > 100 | > 100 | > 100 | > 100 | – | –
C=C1C(=O)OC2/C=C(\C)CC/C=C(\C)CC(OC(=O)/C(=C/CO)CO)[C@@H]12 (stereo partly drawn) | 22.9 | 21.3 | 28.2 | 5.55 | 3.5 | > 100 | 23.9 | 5.81 | 14.1 | 63.4 | 4.07 | 31.3 | > 85.7 | 1.92
CC(C)(C)OC(=O)NCC(=O)N(CCc1ccc(Cl)c(Cl)c1)CCN1CCCC1 | 31.8 | 29.7 | 26.6 | 28.5 | 29.4 | 32.1 | 28.7 | 36.4 | 36 | 46.5 | 35.8 | 38.7 | 34.4 | –
COc1cccc(N2C(=O)C3c4[nH]c5ccc(C)cc5c4C4CCC(C)CC4C3C2=O)c1 (stereo not drawn) | > 100 | 47.3 | > 100 | – | – | > 100 | > 100 | > 100 | > 100 | 64.9 | > 100 | > 100 | > 100 | –
CC(C)N(C(=O)C12C3(C(=O)C(C)(C)C)C4C5(C#N)C3C1(C(=O)C(C)(C)C)C5C42C(=O)C(C)(C)C)C(C)C (stereo not drawn) | > 100 | > 100 | > 100 | > 100 | > 100 | – | > 100 | – | > 100 | > 100 | > 100 | > 100 | > 100 | –
N#Cc1nc(-c2ccc(-c3nc(C#N)c(N)o3)cc2)oc1N | > 10 | > 10 | > 10 | > 10 | > 10 | > 10 | > 10 | > 10 | > 10 | > 10 | > 10 | – | > 10 | –
COc1ccc2c(c1)C1c3ccccc3CCN1CCC2 (stereo not drawn) | > 100 | > 100 | 84.7 | > 100 | 98.1 | > 100 | > 100 | – | > 100 | > 100 | > 100 | > 100 | > 100 | –
CC(=O)c1sc2n(C)c(=O)c3ccccc3[n+]2c1C | > 100 | > 100 | > 100 | > 100 | > 100 | > 100 | > 100 | – | > 100 | > 100 | > 100 | > 100 | > 100 | –
Nc1ncnc2c1ncn2[C@@H]1C[C@H](NO)[C@@H](O)[C@H]1O | > 100 | > 100 | > 100 | > 100 | > 100 | > 100 | > 100 | > 100 | – | > 100 | > 100 | > 100 | > 100 | –
Cc1ccc(S(=O)(=O)NC(=O)NCC(N)=O)cc1 | > 100 | > 100 | > 100 | > 100 | > 100 | > 100 | > 100 | > 100 | – | > 100 | > 100 | > 100 | > 100 | –
C=CC[C@@]12CCC(=O)C=C1CCCC2=O | > 100 | > 100 | > 100 | > 100 | > 100 | > 100 | > 100 | > 100 | > 100 | > 100 | – | > 100 | > 100 | –
O=C(/C=C/c1ccccc1Br)c1ccccc1 | 2.27 | 20.1 | 27.5 | – | 9.73 | 30.5 | 11.3 | – | 8.37 | 11.3 | 8.31 | 34.2 | 23.2 | –
Cc1ncc([N+](=O)[O-])n1CCNC(=O)Cn1ccnc1[N+](=O)[O-] | > 100 | – | > 100 | > 100 | > 100 | > 100 | > 100 | > 100 | > 100 | > 100 | > 100 | > 100 | > 100 | –
COC(=O)/C=C/c1ccc2c(c1)[C@H](C(=O)OC)[C@@H](c1ccc(O)cc1)O2 | 48.6 | – | > 100 | 96.5 | 74.2 | > 100 | 70 | 80.6 | > 100 | 96.4 | > 100 | > 100 | > 100 | –
